IC50 and MIC data for 25 compounds are collected here from patent US6821980B1, “Substituted 5-benzyl-2,4-diaminopyrimidines” (Basilea Pharmaceutica AG, priority 1999, dated 2004).

Assay [1] addresses T1, purified DHFR of strain Sp1/1 of Streptococcus pneumoniae (Streptococcus pneumoniae serotype 4, UniProt Q54801).
T1 sequence (Q54801 1-168 I100L): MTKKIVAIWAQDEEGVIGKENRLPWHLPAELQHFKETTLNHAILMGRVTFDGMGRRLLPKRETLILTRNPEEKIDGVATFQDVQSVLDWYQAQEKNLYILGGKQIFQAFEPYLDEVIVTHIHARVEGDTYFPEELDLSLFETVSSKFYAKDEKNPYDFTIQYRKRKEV
Format: biochemical. The note with it: Table 2; IC50 against purified DHFR of strain Sp1/1.

In assay [2] the test system is Staphylococcus aureus 101. The assay can be described thus: MIC against Staphylococcus aureus 101. Format: cell-based. The note with it: Table 2; Staphylococcus aureus 101, MRSA- and trimethoprim-resistant; clinical isolate; read-out: MIC Sa101.
The test system of assay [3] is Streptococcus pneumoniae 1/1. The assay can be described thus: MIC against Streptococcus pneumoniae 1/1. Type of assay: cell-based. The conditions noted are these: Table 2; Streptococcus pneumoniae 1/1, trimethoprim- and penicillin-resistant, serotype 6; clinical isolate; read-out: MIC Sp1/1.
In assay [4] the target is purified DHFR of strain 157/4696 of Staphylococcus aureus (Staphylococcus aureus, UniProt P13955). Nature of the assay: biochemical.

The term IC50 denotes the midpoint of a concentration-inhibition curve. Higher therefore signals lower potency.

Each structure is given as a SMILES string. Converted amounts (≈) assume the structure as drawn.

Chain of purified DHFR of strain 157/4696 of Staphylococcus aureus (P13955 whole entry): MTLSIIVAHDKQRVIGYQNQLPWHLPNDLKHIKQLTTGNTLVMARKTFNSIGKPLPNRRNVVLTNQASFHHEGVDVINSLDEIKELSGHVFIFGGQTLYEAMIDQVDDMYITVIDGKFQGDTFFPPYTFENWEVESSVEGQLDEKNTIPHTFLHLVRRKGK

As for `CCOc1cc(Cc2cnc(N)nc2N)cc(OCC2(CC#N)CC2)c1-c1ccc(O)cc1` [Example 08-c, {1-[4-(2,4-Diamino-pyrimidin-5-ylmethyl)-6-ethoxy-4′-hydroxy-biphenyl-2-yloxymethyl]-cyclopropyl}-acetonitrile], the concentration for half-maximal inhibition (IC50) in assay [1] amounted to 24 nM; in assay [4], 1600 nM. Also, the MIC in assay [2] was 8 µg/mL (≈ 18 µM); in assay [3] it was 4 µg/mL (≈ 8.98 µM).
For `CCOc1cc(Cc2cnc(N)nc2N)cc(OCC2(/C=C/C#N)CC2)c1-c1ccc(O)cc1` [Example 08-d, (E)-3-[1-[4-(2,4-Diamino-pyrimidin-5-ylmethyl)-6-ethoxy-4′-hydrozy-biphenyl-2-yloxymethyl]-cyopropyl]-acrylonitrile], the figures for the IC50 in assay [1] and in assay [4] were 16 nM and 620 nM, respectively. Further, the MIC in assay [2] was 8 µg/mL (≈ 17.5 µM); in assay [3] it was 4 µg/mL (≈ 8.74 µM).
With `CCOc1cc(Cc2cnc(N)nc2N)cc(OCCC2CCOCC2)c1-c1ccc(O)cc1` [Example 08-e, 4′-(2,4-Diamino-pyrimidin-5-ylmethyl)-6′-ethoxy-2′-[2-(tetrahydrogyran-4-yl)-ethoxy]-biphenyl-4-ol], the IC50 in assay [1] turned out to be 5.6 nM; in assay [4], 950 nM. In addition, the figures for the MIC in assay [2] and in assay [3] were 8 µg/mL (≈ 17.2 µM) and 1 µg/mL (≈ 2.15 µM), respectively.
In the case of `CCOc1cc(Cc2cnc(N)nc2N)cc(OCC2(C#N)CC2)c1-c1ccc(O)cc1` [Example 08-f, 1-[4-(2,4-Diamino-pyrimidin-5-ylmethyl)-6-ethoxy-4′-hydroxy-biphenyl-2-yloxymethyl]-cyclopropanecarbonitrile], the IC50 turned out to be 49 nM in assay [1] and 950 nM in assay [4]. The values for the MIC in assay [2] and in assay [3] were 8 µg/mL (≈ 18.5 µM) and 4 µg/mL (≈ 9.27 µM), respectively.
As to `CCOc1cc(Cc2cnc(N)nc2N)cc(OCCc2ccccn2)c1-c1ccc(O)cc1` [Example 08-g, 4′-(2,4-Diamino-pyrimidin-5-ylmethyl)-6′-ethoxy-2′-(2-pyridin-2-yl-ethoxy)-biphenyl-4-ol], the half-inhibitory concentration (IC50) in assay [1] is 52 nM; in assay [4] it was 1300 nM. Further, the MIC worked out at 8 µg/mL (≈ 17.5 µM) in assay [2] and 4 µg/mL (≈ 8.74 µM) in assay [3].
As for `CCOc1cc(Cc2cnc(N)nc2N)cc(OCC2CC2)c1-c1ccc(O)cc1` [Example 08-h, 2′-Cyclopropylmethoxy-4′-(2,4-diamino-pyrimidin-5-ylmethyl)-6′-ethoxy-biphenyl-4-ol], the half-maximal inhibitory concentration (IC50) worked out at 11 nM in assay [1] and 1200 nM in assay [4]. The MIC worked out at 4 µg/mL (≈ 9.84 µM) in assay [2] and 2 µg/mL (≈ 4.92 µM) in assay [3].
Take `CCOc1cc(Cc2cnc(N)nc2N)cc(OCC2CCC2)c1-c1ccc(O)cc1` [Example 08-i, 2′-Cyclobutylmethoxy-4′-(2,4-diamino-pyrimidin-5-ylmethyl)-6′-ethoxy-biphenyl-4-ol]: the results for the half-maximal inhibitory concentration (IC50) in assay [1] and in assay [4] were 40 nM and 1000 nM, respectively. Besides, the MIC in assay [2] was found to be 2 µg/mL (≈ 4.76 µM); in assay [3], 4 µg/mL (≈ 9.51 µM).
For the compound `CCOc1cc(Cc2cnc(N)nc2N)cc(OC2CCCC2)c1-c1ccc(O)cc1` [Example 08-j, 2′-Cyclopentylox-4′-(2,4-diamino-pyrimidin-5-ylmethyl)-6′-ethoxy-biphenyl-4-ol], the figures for the IC50 in assay [1] and in assay [4] were 26 nM and 1600 nM, respectively. Also, the MIC in assay [2] and in assay [3] was 2 µg/mL (≈ 4.76 µM) each time.
As to `CCOc1cc(Cc2cnc(N)nc2N)cc(OC2CCC2)c1-c1ccc(O)cc1` [Example 08-k, 2′-Cyclobutoxy-4′-(2,4-diamino-pyrimidin-5-ylmethyl)-6′-ethoxy-biphenyl-4-ol], the 50% inhibitory concentration (IC50) in assay [1] stood at 43 nM; in assay [4], 2100 nM. The MIC in assay [2] stood at 4 µg/mL (≈ 9.84 µM); in assay [3] it was 2 µg/mL (≈ 4.92 µM).
`CCOc1cc(Cc2cnc(N)nc2N)cc(OCCC2CC2)c1-c1ccc(O)cc1` [Example 08-l, 2′-(2-Cydopropyl-ethoxy)-4′-(2,4-diamino-pyrimidin-5-ylmethyl)-6′-ethoxy-biphenyl-4-ol]: the IC50 in assay [1] is 58 nM; in assay [4] it was 2200 nM. Also, the MIC in assay [2] was 4 µg/mL (≈ 9.51 µM); in assay [3], 8 µg/mL (≈ 19 µM).
For `CCOc1cc(Cc2cnc(N)nc2N)cc(OC(C)C)c1-c1ccc(O)cc1` [Example 08-m, 4′-(2,4-diamino-pyrimidin-5-ylmethyl)-6′-ethoxy-2′-isopropoxy-biphenyl-4-ol], in that order: 65 nM, 860 nM, 8 µg/mL (≈ 20.3 µM) and 4 µg/mL (≈ 10.1 µM).
As to `CCOc1cc(Cc2cnc(N)nc2N)cc(OCC(C)C)c1-c1ccc(O)cc1` [Example 08-n, 4′-(2,4-Diamino-pyrimidin-5-ylmethyl)-6′-ethoxy-2′-isobutoxy-biphenyl-4-ol], the IC50 in assay [1] is 15 nM; in assay [4] it was 1200 nM. For the same compound, the values for the MIC in assay [2] and in assay [3] were 4 µg/mL (≈ 9.79 µM) and 2 µg/mL (≈ 4.9 µM), respectively.
On the same counts, the results for `CCOc1cc(Cc2cnc(N)nc2N)cc(OCC2(C)CC2)c1-c1ccc(O)cc1` [Example 08-o, 4′-(2,4-Diamino-pyrimidin-5-ylmethyl)-6′-ethoxy-2′-[(1-methyl-cyclopropyl)-methoxy]-biphenyl-4-ol] are 51 nM, 1400 nM, 4 µg/mL (≈ 9.51 µM) and 2 µg/mL (≈ 4.76 µM).
On the same counts, the results for `CCOc1cc(Cc2cnc(N)nc2N)cc(OCC(C)(C)CO)c1-c1ccc(O)cc1` [Example 08-p] are 20 nM, 800 nM, 8 µg/mL (≈ 18.2 µM) and 4 µg/mL (≈ 9.12 µM).
Regarding `CCOc1cc(Cc2cnc(N)nc2N)cc(OCCc2scnc2C)c1-c1ccc(O)cc1` [Example 08-q, 4′-(2,4-Diamino-pyrimidin-5-ylmethyl)-6′-ethoxy-2′-[2-(4-methyl-thiazol-5-yl)-ethoxy]-biphenyl-4-ol], the IC50 was 28 nM in assay [1] and 1400 nM in assay [4]. The MIC in assay [2] and in assay [3] was 8 µg/mL (≈ 16.8 µM) in each case.
Regarding `CCOc1cc(Cc2cnc(N)nc2N)cc(OC2CCC(OC)C2)c1-c1ccc(O)cc1` (stereo not shown) [Example 08-r, 5-[6-Ethoxy-2-(3-methoxy-cyclopentyloxy)-4′-hydroxy-biphenyl-4-ylmethyl]-pyrimidine-2,4-diamine], the values for the 50% inhibitory concentration (IC50) in assay [1] and in assay [4] were 37 nM and 1200 nM, respectively. In addition, the MIC in assay [2] and in assay [3] was 8 µg/mL (≈ 17.8 µM) each time.
Regarding `CCOc1cc(Cc2cnc(N)nc2N)cc(OCC(F)(F)F)c1-c1ccc(O)cc1` [Example 08-s], the 50% inhibitory concentration (IC50) came out at 31 nM in assay [1] and 3700 nM in assay [4]. Also, the results for the MIC in assay [2] and in assay [3] were 4 µg/mL (≈ 9.21 µM) and 2 µg/mL (≈ 4.6 µM), respectively.
As to `CCOc1cc(Cc2cnc(N)nc2N)cc(OC2CCC(CC#N)C2)c1-c1ccc(O)cc1` (stereo not shown) [Example 08-w, {3-[4-(2,4-Diamino-pyhmidin-5-ylmethyl)-6-ethoxy-4′-hydroxy-biphenyl-2-yloxy]-cyclopentyl}-acetonitrile], the IC50 in assay [1] came out at 21 nM; in assay [4] it was 920 nM. Besides, the MIC in assay [2] was found to be 8 µg/mL (≈ 17.4 µM); in assay [3] it was 4 µg/mL (≈ 8.7 µM).
With `CCOc1cc(Cc2cnc(N)nc2N)cc(OC2CCC(C#N)C2)c1-c1ccc(O)cc1` (stereo not shown) [Example 08-x, 3-[4-(2,4-Diamino-pyximidin-5-ylmethyl)-6-ethoxy-4′-hydroxy-biphenyl-2-yloxy]-cyclopentanecarbonitrile], the results for the IC50 in assay [1] and in assay [4] were 25 nM and 1400 nM, respectively. The MIC in assay [2] was found to be 8 µg/mL (≈ 18 µM); in assay [3], 4 µg/mL (≈ 8.98 µM).
For `CCOc1cc(Cc2cnc(N)nc2N)cc(OCC(C)(C)COC)c1-c1ccc(OC)cc1` [Example 09-a, 5-[6-Ethoxy-4′-methoxy-2-(3-methoxy-2,2-dimethyl-propoxy)-biphenyl-4-ylmethyl]-pyrimidine-2,4-diamine], in that order: 90 nM, 3100 nM, 8 µg/mL (≈ 17.1 µM) and 4 µg/mL (≈ 8.57 µM).
As to `CCOc1cc(Cc2cnc(N)nc2N)cc(OCC2(CCC#N)CC2)c1-c1ccc(OC)cc1` [Example 09-c, 3-{1-[4-(2,4-Diamino-pyrimidin-5-ylmethyl)-6-ethoxy-4′-methoxy-biphenyl-2-yloxymethyl]-cyclopropyl}-propionitrile], the IC50 came to 16 nM in assay [1] and 900 nM in assay [4]. The MIC in assay [2] turned out to be 4 µg/mL (≈ 8.45 µM); in assay [3], 1 µg/mL (≈ 2.11 µM).
In the case of `CCOc1cc(Cc2cnc(N)nc2N)cc(OCC2CC2)c1-c1ccc(OC)cc1` [Example 09-d, 5-(2-Cyclopropylmethoxy-6-ethoxy-4′-methoxy-biphenyl-4-ylmethyl)-pyrimidine-2.4-diamine], the half-maximal inhibitory concentration (IC50) in assay [1] stood at 30 nM; in assay [4], 1500 nM. The MIC in assay [2] is 4 µg/mL (≈ 9.51 µM); in assay [3], 2 µg/mL (≈ 4.76 µM).
On to `CCCOc1cc(Cc2cnc(N)nc2N)cc(OCC)c1-c1ccc(OC)cc1` [Example 09-e, 5-(6-Ethoxy-4′-methoxy-2-propoxy-biphenyl-4-ylmethyl)-pyrimidine-2,4-diamine], for which the IC50 in assay [1] worked out at 45 nM; in assay [4], 1000 nM. Further, the MIC in assay [2] and in assay [3] was 4 µg/mL (≈ 9.79 µM) in each case.
In the case of `CCOc1cc(Cc2cnc(N)nc2N)cc(OC(C)C)c1-c1ccc(OC)cc1` [Example 09-f, 5-(2-Ethoxy-6-isopropopy-4′-methoxy-biphenyl-4-ylmethyl)-pyrimidine-2,4-diamine], the results for the IC50 in assay [1] and in assay [4] were 140 nM and 1900 nM, respectively. In addition, the MIC in assay [2] and in assay [3] was 8 µg/mL (≈ 19.6 µM) throughout.
Consider `CCOc1cc(Cc2cnc(N)nc2N)cc(OCC(C)C)c1-c1ccc(OC)cc1` [Example 09-g, 5-(2-Ethoxy-6-isobutox-4′-methoxy-biphenyl-4-ylmethyl)-pyrimidine-2,4-diamine], for which the IC50 in assay [1] was 50 nM; in assay [4], 1600 nM. The MIC in assay [2] and in assay [3] was 4 µg/mL (≈ 9.47 µM) throughout.
